# Results as given in US20250205259A1, “CLASS OF 7-((FIVE-MEMBERED HETEROCYCLIC)METHYL)-8-CARBOXYLIC ACID-BENZO CYCLIC BORATE DERIVATIVES AND USES THEREOF” (priority 2022, published 2025).
# Like-named read-outs stand apart in the source and are kept apart here.
# Tests used:
# Assay type in all cases: biochemical
# NDM-1 = NDM-1 (Klebsiella pneumoniae, UniProt C7C422); test: Inhibitory activity on MBL, fluorescent substrate FC-5
# NDM-5 = NDM-5 (Klebsiella pneumoniae, UniProt C7C422, M154L/V88L); test: as above
# IMP-1 = IMP-1 (Serratia marcescens, UniProt P52699); test: as above
# VIM-1 = VIM-1 (Pseudomonas aeruginosa, UniProt A0A0F7KYQ8); test: as above
# VIM-2 = VIM-2 (Escherichia coli, UniProt Q5U7L7); test: as above
# KPC-2 = KPC-2 (Klebsiella pneumoniae, UniProt Q9F663); test: Inhibitory activity on SBL, fluorescent substrate FC-5; conditions: for IC50: read-out: Inhibitory activity on SBL KPC-2 (IC50 class); for inhibitory activity on KPC-2 compared to avibactam: comparison in words
# TEM-1 = TEM-1 (Escherichia coli, UniProt P62593); test: as above; conditions: for IC50: read-out: Inhibitory activity on SBL TEM-1 (IC50 class); for inhibitory activity on TEM-1 compared to avibactam: comparison in words
# SHV-12 = molecular target: T1, SHV-12 (UniProt P0AD64, L31Q/G234S/E235K, species not given); test: as above; conditions: read-out: Inhibitory activity on SBL SHV-12 (IC50 class)
# T1 sequence (P0AD64 1-286 L31Q/G234S/E235K): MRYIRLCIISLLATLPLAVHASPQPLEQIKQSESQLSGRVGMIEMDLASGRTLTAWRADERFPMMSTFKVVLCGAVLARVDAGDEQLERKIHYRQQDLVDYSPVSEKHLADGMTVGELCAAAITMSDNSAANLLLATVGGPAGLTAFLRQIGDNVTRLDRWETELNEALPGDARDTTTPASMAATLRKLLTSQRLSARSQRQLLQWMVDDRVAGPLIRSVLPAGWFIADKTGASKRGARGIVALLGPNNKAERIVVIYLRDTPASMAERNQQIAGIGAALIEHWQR
# CTX-M-14 = CTX-M-14 (Escherichia coli, UniProt Q9L5C7); test: as above; conditions: for IC50: read-out: Inhibitory activity on SBL CTX-M-14 (IC50 class); for inhibitory activity on CTX-M-14 compared to avibactam: comparison in words
# OXA-48 = OXA-48 (Klebsiella pneumoniae, UniProt Q6XEC0); test: as above; conditions: for IC50: read-out: Inhibitory activity on SBL OXA-48 (IC50 class); for inhibitory activity on OXA-48 compared to avibactam: comparison in words
# [1] = read-out: Inhibitory activity on MBL NDM-1 (IC50 class)
# [2] = read-out: inhibitory activity at a nanomolar-level on NDM-1
# [3] = read-out: Inhibitory activity on MBL NDM-5 (IC50 class)
# [4] = read-out: inhibitory activity at a nanomolar-level on NDM-5
# [5] = read-out: Inhibitory activity on MBL IMP-1 (IC50 class)
# [6] = read-out: Inhibitory activity on MBL VIM-1 (IC50 class)
# [7] = read-out: Inhibitory activity on MBL VIM-2 (IC50 class)
# [8] = VIM-1 and/or VIM-2, read-out: inhibitory activity at a nanomolar-level on VIM-1 and/or VIM-2
# [9] = IMP-1 and/or IMP-4, read-out: inhibitory activity at a nanomolar-level on IMP-1 and/or IMP-4
# Sequence of OXA-48 (Q6XEC0 23-265 limits assumed): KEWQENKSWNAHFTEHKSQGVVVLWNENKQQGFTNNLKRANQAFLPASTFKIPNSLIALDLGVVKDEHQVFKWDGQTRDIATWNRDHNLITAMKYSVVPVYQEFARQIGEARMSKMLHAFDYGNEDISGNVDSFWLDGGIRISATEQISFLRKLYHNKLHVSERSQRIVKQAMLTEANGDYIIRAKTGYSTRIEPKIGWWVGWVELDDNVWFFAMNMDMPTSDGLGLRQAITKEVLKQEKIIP
# Sequence of TEM-1 (P62593 24-286 limits assumed): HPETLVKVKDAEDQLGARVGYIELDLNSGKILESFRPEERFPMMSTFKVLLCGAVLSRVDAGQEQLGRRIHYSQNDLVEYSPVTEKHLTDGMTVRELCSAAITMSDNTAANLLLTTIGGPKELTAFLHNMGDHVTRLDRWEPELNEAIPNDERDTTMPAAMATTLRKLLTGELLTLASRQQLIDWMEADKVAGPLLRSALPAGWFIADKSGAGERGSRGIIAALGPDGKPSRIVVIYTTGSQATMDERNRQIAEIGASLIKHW
# Sequence of NDM-5 (C7C422 29-270 V88L/M154L): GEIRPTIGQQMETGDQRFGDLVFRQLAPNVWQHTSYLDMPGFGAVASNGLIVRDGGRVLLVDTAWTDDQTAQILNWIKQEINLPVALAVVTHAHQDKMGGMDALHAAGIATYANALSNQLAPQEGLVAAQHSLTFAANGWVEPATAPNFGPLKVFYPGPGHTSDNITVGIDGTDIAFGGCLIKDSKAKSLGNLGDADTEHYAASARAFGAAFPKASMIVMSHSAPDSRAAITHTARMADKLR
# Sequence of NDM-1 (C7C422 29-270 limits assumed): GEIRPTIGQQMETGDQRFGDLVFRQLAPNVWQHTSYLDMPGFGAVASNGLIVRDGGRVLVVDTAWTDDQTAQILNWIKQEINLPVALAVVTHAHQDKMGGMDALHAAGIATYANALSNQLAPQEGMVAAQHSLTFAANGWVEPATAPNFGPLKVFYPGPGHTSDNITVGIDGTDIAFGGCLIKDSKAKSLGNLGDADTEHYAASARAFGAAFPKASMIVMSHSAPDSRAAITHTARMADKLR
# Sequence of IMP-1 (P52699 19-246 limits assumed): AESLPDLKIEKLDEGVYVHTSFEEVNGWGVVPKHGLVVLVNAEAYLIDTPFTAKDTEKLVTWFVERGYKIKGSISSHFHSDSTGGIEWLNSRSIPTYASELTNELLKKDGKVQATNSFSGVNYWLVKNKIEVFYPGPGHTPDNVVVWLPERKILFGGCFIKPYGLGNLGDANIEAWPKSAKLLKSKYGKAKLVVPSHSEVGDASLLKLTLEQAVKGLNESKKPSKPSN
# Sequence of KPC-2 (Q9F663 25-293 limits assumed): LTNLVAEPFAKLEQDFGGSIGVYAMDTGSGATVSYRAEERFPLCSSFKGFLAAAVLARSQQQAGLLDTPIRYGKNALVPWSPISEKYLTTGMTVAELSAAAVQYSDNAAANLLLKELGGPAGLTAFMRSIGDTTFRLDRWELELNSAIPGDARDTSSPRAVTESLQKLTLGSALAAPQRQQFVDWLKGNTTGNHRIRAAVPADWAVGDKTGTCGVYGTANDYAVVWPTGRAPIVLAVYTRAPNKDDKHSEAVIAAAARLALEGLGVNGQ
# Sequence of CTX-M-14 (Q9L5C7 entry or part of it): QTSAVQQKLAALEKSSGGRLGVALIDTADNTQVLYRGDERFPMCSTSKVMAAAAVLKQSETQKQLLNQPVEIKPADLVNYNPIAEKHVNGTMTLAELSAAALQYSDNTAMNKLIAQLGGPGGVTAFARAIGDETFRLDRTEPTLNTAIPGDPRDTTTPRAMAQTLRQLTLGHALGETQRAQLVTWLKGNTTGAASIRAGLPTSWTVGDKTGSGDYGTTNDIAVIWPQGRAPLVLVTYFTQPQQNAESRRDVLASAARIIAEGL
Structure (SMILES),IC50 (NDM-1; [1]) [nM],IC50 (NDM-1; [2]) [nM],IC50 (NDM-5; [3]) [nM],IC50 (NDM-5; [4]) [nM],IC50 (IMP-1; [5]) [nM],IC50 (VIM-1; [6]) [nM],IC50 (VIM-2; [7]) [nM],IC50 (KPC-2) [nM],IC50 (TEM-1) [nM],IC50 (SHV-12) [nM],IC50 (CTX-M-14) [nM],IC50 (OXA-48) [nM],IC50 (VIM-1; [8]) [nM],inhibitory activity on KPC-2 compared to avibactam (KPC-2),inhibitory activity on TEM-1 compared to avibactam (TEM-1),inhibitory activity on CTX-M-14 compared to avibactam (CTX-M-14),inhibitory activity on OXA-48 compared to avibactam (OXA-48),IC50 (IMP-1; [9]) [nM],IC50 (VIM-2; read-out: inhibitory activity on VIM-2) [nM]
NS(=O)(=O)NCCc1cn(Cc2ccc3c(c2C(=O)O)OB(O)CC3)nn1 [Compound 51],10 to 1000,< 1000,10 to 1000,< 1000,1000 to 100000,1000 to 100000,10 to 1000,< 10,10 to 1000,10 to 1000,10 to 1000,< 10,–,–,–,–,–,–,–
N#Cc1ccn(Cc2ccc3c(c2C(=O)O)OB(O)CC3)n1 [Compound 18],10 to 1000,< 1000,10 to 1000,< 1000,1000 to 100000,1000 to 100000,10 to 1000,< 10,< 10,10 to 1000,10 to 1000,< 10,< 1000,better or comparable,better or comparable,better or comparable,better or comparable,–,–
O=C(O)c1c(Cn2cncn2)ccc2c1OB(O)CC2 [Compound 13],10 to 1000,< 1000,10 to 1000,< 1000,1000 to 100000,1000 to 100000,10 to 1000,< 10,10 to 1000,10 to 1000,< 10,< 10,< 1000,–,–,–,–,–,–
Cc1nccn1Cc1ccc2c(c1C(=O)O)OB(O)CC2 [Compound 24],1000 to 100000,–,1000 to 100000,–,1000 to 100000,1000 to 100000,10 to 1000,< 10,10 to 1000,10 to 1000,10 to 1000,< 10,< 1000,–,–,–,–,–,–
NS(=O)(=O)N1Cc2cn(Cc3ccc4c(c3C(=O)O)OB(O)CC4)nc2C1 [Compound 57],10 to 1000,< 1000,10 to 1000,< 1000,1000 to 100000,10 to 1000,10 to 1000,< 10,< 10,10 to 1000,< 10,< 10,< 1000,–,–,–,–,–,–
O=C(O)c1c(Cn2ccnc2)ccc2c1OB(O)CC2 [Compound 23],10 to 1000,< 1000,10 to 1000,< 1000,1000 to 100000,1000 to 100000,10 to 1000,< 10,10 to 1000,10 to 1000,10 to 1000,< 10,< 1000,–,–,–,–,–,–
CO[C@H]1Cc2ccc(Cn3ccnn3)c(C(=O)O)c2OB1O [Compound 30],10 to 1000,< 1000,10 to 1000,< 1000,10 to 1000,10 to 1000,10 to 1000,< 10,10 to 1000,–,10 to 1000,10 to 1000,< 1000,–,–,–,–,< 1000,–
O=C(O)c1c(Cn2cc3c(n2)CNC3)ccc2c1OB(O)CC2 [Compound 56],10 to 1000,< 1000,10 to 1000,< 1000,1000 to 100000,10 to 1000,10 to 1000,< 10,< 10,–,10 to 1000,< 10,< 1000,–,–,–,–,–,–
NS(=O)(=O)c1ccc(-c2cn(Cc3ccc4c(c3C(=O)O)OB(O)CC4)nn2)cc1 [Compound 62],10 to 1000,< 1000,10 to 1000,< 1000,10 to 1000,10 to 1000,10 to 1000,< 10,10 to 1000,–,< 10,< 10,< 1000,better or comparable,better or comparable,better or comparable,better or comparable,< 1000,< 10
CC(C)(N)C#Cc1cnn(Cc2ccc3c(c2C(=O)O)OB(O)CC3)c1 [Compound 46],1000 to 100000,–,10 to 1000,–,1000 to 100000,1000 to 100000,10 to 1000,< 10,10 to 1000,–,< 10,10 to 1000,–,–,–,–,–,–,–
CO[C@H]1Cc2ccc(Cn3cc(CN)cn3)c(C(=O)O)c2OB1O [Compound 69],10 to 1000,–,1000 to 100000,–,1000 to 100000,1000 to 100000,10 to 1000,1000 to 100000,1000 to 100000,–,1000 to 100000,1000 to 100000,–,–,–,–,–,–,–
NCCNc1cnn(Cc2ccc3c(c2C(=O)O)OB(O)CC3)c1 [Compound 33],10 to 1000,< 1000,10 to 1000,< 1000,1000 to 100000,1000 to 100000,10 to 1000,< 10,10 to 1000,–,10 to 1000,< 10,–,–,–,–,–,–,–
NCCc1cn(Cc2ccc3c(c2C(=O)O)OB(O)CC3)nn1 [Compound 8],1000 to 100000,–,10 to 1000,–,1000 to 100000,1000 to 100000,10 to 1000,10 to 1000,10 to 1000,–,10 to 1000,10 to 1000,< 1000,–,–,–,–,–,–
O=C(O)c1c(Cn2cc(C3CNC3)nn2)ccc2c1OB(O)CC2 [Compound 47],10 to 1000,< 1000,1000 to 100000,< 1000,1000 to 100000,1000 to 100000,1000 to 100000,10 to 1000,10 to 1000,–,10 to 1000,10 to 1000,–,–,–,–,–,–,–
C[C@H]1Cc2ccc(Cn3ccnn3)c(C(=O)O)c2OB1O [Compound 29],10 to 1000,< 1000,10 to 1000,< 1000,10 to 1000,10 to 1000,10 to 1000,< 10,10 to 1000,–,10 to 1000,10 to 1000,< 1000,–,–,–,–,< 1000,–
N=C(N)NCc1cnn(Cc2ccc3c(c2C(=O)O)OB(O)CC3)c1 [Compound 37],10 to 1000,< 1000,10 to 1000,< 1000,1000 to 100000,1000 to 100000,10 to 1000,< 10,< 10,–,< 10,< 10,–,–,–,–,–,–,–
Nc1ncc(-c2cn(Cc3ccc4c(c3C(=O)O)OB(O)CC4)nn2)cn1 [Compound 61],10 to 1000,< 1000,10 to 1000,< 1000,10 to 1000,10 to 1000,10 to 1000,< 10,10 to 1000,–,10 to 1000,< 10,< 1000,better or comparable,better or comparable,better or comparable,better or comparable,< 1000,–
N=C(N)Nc1cnn(Cc2ccc3c(c2C(=O)O)OB(O)CC3)c1 [Compound 38],10 to 1000,< 1000,10 to 1000,< 1000,1000 to 100000,1000 to 100000,10 to 1000,10 to 1000,10 to 1000,–,10 to 1000,< 10,–,–,–,–,–,–,–
O=C(O)c1c(Cn2ccnn2)ccc2c1OB(O)C1CC21 (centres unmarked) [Compound 28],1000 to 100000,–,1000 to 100000,–,10 to 1000,10 to 1000,10 to 1000,< 10,10 to 1000,–,10 to 1000,10 to 1000,< 1000,–,–,–,–,< 1000,–
"NC(=O)[C@@H]1CC[C@@H]2CN1C(=O)N2OS(=O)(=O)O [Avibactam, reference compound]",> 100000,–,> 100000,–,> 100000,> 100000,> 100000,–,–,< 10,< 10,–,–,–,–,–,–,–,–
